Earlier results on 1 substance are cited in patent publication US7759468B1, “Bioactive peptide-based probes” (priority 2003, dated 2010).

The test system of the data set is L. lactis ssp. lactis C2. As to conditions: known / from the literature; cited from earlier work.

Glu-Glu [Glu-Glu peptide]: the Inhibition of growth result is reported as “potent inhibitor of growth”.
